In patent US9440957B2, “Compounds and compositions for modulating EGFR Activity” (Novartis AG, priority 2012, dated 2016):

Assays:
Assay type in all cases: cell-based
[1] = molecular target: HEKn (EGFR WT) (Homo sapiens, UniProt P00533); assay: EGFR target modulation in HEKn (EGFR-WT) cell line (phospho-EGFR Y1173 ELISA); details: value outside parentheses
Outline: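 Read-out was Y1173 phosphorylation, measured by chemiluminescent ELISA with anti-EGFR capture of lysates. HEKn keratinocytes (wild-type EGFR) were treated with compound for 3 h.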

[2] = molecular target: H3255 (EGFR L858R) (Homo sapiens, UniProt P00533, L858R); assay: EGFR target modulation in H3255 cell line (phospho-EGFR Y1173 ELISA)
Sequence of H3255 (EGFR L858R) (P00533 25-1210 L858R): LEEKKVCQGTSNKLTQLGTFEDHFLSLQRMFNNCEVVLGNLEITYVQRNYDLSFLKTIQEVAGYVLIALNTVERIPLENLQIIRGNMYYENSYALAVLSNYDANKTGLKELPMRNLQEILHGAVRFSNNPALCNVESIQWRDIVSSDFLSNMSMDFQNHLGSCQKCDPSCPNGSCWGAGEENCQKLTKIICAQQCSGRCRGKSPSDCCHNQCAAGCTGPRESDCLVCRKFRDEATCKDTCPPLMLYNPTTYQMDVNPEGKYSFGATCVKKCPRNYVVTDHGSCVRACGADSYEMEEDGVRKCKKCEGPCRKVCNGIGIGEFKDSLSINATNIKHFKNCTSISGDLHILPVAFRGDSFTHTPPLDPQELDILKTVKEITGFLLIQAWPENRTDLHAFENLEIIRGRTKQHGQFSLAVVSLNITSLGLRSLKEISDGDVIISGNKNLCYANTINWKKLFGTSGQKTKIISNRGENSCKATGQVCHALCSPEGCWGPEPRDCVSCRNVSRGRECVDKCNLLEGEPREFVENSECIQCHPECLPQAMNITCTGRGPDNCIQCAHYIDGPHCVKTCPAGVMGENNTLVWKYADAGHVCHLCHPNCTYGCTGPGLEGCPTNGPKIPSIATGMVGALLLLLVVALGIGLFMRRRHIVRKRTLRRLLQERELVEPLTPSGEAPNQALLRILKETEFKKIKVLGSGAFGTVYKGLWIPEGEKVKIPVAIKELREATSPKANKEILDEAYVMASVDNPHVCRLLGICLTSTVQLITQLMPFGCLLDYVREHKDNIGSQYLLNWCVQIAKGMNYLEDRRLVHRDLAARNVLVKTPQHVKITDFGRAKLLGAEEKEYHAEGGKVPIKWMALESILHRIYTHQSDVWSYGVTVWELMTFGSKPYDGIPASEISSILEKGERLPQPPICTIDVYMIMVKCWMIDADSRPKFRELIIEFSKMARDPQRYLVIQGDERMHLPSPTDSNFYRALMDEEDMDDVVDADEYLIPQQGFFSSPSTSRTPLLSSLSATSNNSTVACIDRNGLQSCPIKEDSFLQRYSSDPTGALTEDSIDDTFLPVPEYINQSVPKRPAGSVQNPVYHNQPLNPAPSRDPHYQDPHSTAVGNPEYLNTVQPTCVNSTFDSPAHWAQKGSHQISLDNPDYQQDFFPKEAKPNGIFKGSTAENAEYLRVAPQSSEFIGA
Outline: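 3 h compound exposure of cells in 10% FBS/RPMI, 37 °C; lysis on ice 20 min; lysate captured overnight at 4 °C on anti-EGFR-coated plates; anti-rabbit-HRP, chemiluminescence.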

[3] = molecular target: HaCaT (EGFR WT) (Homo sapiens, UniProt P00533); assay: EGFR target modulation in HaCaT (EGFR-WT) cell line (phospho-EGFR Y1173 ELISA); details: value in parentheses
Sequence of HaCaT (EGFR WT) (P00533 25-1210): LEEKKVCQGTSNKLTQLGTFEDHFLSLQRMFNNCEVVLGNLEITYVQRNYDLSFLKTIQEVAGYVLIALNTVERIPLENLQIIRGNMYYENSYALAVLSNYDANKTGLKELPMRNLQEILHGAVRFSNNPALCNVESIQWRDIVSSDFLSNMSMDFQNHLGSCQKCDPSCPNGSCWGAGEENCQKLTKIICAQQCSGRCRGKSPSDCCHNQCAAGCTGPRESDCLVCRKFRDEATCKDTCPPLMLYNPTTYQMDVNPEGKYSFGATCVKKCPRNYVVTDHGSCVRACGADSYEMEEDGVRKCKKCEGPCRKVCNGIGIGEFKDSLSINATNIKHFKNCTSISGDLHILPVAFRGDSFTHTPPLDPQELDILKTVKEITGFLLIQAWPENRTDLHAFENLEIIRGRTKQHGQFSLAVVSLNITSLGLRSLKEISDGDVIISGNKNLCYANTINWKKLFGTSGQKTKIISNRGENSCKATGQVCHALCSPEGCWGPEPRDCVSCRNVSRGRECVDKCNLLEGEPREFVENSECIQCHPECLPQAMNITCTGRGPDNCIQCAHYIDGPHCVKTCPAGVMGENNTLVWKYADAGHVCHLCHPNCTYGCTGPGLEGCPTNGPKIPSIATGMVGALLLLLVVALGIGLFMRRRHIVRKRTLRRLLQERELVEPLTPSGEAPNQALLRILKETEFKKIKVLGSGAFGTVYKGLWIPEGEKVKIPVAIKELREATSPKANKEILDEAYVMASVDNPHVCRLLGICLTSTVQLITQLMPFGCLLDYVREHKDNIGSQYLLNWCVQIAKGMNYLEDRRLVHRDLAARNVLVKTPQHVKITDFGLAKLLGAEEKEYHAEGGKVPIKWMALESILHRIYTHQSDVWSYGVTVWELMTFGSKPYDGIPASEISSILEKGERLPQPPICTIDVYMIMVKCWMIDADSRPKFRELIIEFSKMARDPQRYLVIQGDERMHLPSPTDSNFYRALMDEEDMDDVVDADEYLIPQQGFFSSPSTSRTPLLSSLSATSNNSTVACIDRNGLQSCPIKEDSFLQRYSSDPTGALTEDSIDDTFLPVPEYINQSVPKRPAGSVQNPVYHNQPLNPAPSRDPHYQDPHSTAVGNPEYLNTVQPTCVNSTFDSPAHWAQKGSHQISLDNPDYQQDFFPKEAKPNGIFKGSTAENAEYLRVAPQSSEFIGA
Experimental: EGFR Target Modulation in HaCaT (EGFR-WT) Cell Line Tissue Culture. […] The serial diluted compounds were transferred to the plate containing cells by using a 50 nl Pin Head device (Perkin Elmer) and the cells were placed back in the incubator for 3 hours. […] Phospho-EGFR ([…]) ELISA. Solid white high-binding ELISA plates (Greiner #781074) were coated with 5 ug/ml anti-EGFR capture antibody (R&D Systems #AF231) overnight in 50 mM carbonate/bicarbonate pH 9.5 buffer. […] Wash steps were carried out with a Bio-Tek ELx405 SelectTM using 4 cycles of 100 ul TBS-T (20 mM Tris, 137 mM NaCl, 0.05% Tween-20) per well. […] Lysis was allowed to occur for 20 minutes on ice. A 25 ul aliquot was added to each well of the blocked ELISA plate and incubated overnight at 4° C. with gentle shaking. […] After washing, 1:2,000 anti-rabbit-HRP (Cell Signaling #7074) in 0.2% BSA/TBS-T was added and incubated for 1 hour at room temperature. Chemiluminescent detection was carried out with SuperSignal ELISA Pico substrate (ThermoScientific #37069). Signal was read on EnVision plate reader using built-in UltraLUM setting. Data Analysis. Control cells treated with EGF were set to 100% maximum response. […] With these parameters, the IC50's for each compound in each cell line was calculated using non-linear curve fitting analysis.

Sequence of HEKn (EGFR WT) (P00533 25-1210): as above

Structure (SMILES)	IC50 [1] [nM]	IC50 [2] [nM]	IC50 [3] [nM]
C=CC(=O)N1CCCC[C@@H](n2c(NC(=O)c3ccnc(C)c3)nc3cc(CN4CC[C@@H](OC)C4)cc(C)c32)C1 [Example 17-150]	129	3	59
C=CC(=O)N1CCCC[C@@H](n2c(NC(=O)c3ccnc(C)c3)nc3cc(CN4CC(F)C4)cc(C)c32)C1 [Example 17-152]	112	2	46

Now those with a lower IC50 [1], led by results:

IC50 [1] [nM]	IC50 [2] [nM]	IC50 [3] [nM]	Structure (SMILES)
79	2	44	C=CC(=O)N1CCCC[C@@H](n2c(NC(=O)c3ccnc(C)c3)nc3cc(CN4CC[C@H](F)C4)cc(C)c32)C1 [Example 17-147]
79	2	38	C=CC(=O)N1CCCC[C@@H](n2c(NC(=O)c3ccnc(C)c3)nc3cc(CN4CC(OC)C4)cc(C)c32)C1 [Example 17-154]
77	2	52	C=CC(=O)N1CCCC[C@@H](n2c(NC(=O)c3ccnc(C)c3)nc3cc(CN4CC[C@@H](F)C4)cc(C)c32)C1 [Example 17-148]
76	2	48	C=CC(=O)N1CCCC[C@@H](n2c(NC(=O)c3ccnc(C)c3)nc3cc(CN4CC[C@H](OC)C4)cc(C)c32)C1 [Example 17-149]
